According to the NIST ThermoML archive (doi:10.1021/acs.jced.6b00483):
“And” between values parts separate entries of the source, which are not always exact repeats. Equal values may be shown once. ± gives the expanded uncertainty stated by the source.

Assays:
[1] = DSC
[2] = Molar enthalpy of transition or fusion; conditions: Crystal 3; DSC
[3] = molar heat capacity at constant pressure; conditions: 101.33 kPa, Crystal 3, DSC

NC(N)=C([N+](=O)[O-])[N+](=O)[O-] [1,1-diamino-2,2-dinitroethene]
Conditions	Triple point temperature [K]	molar heat capacity at constant pressure [J/K/mol]
[1], Crystal 2	439.2 ± 4.1	–
[1], Crystal 3	393.7 ± 4.1	–
[3], 345 K	–	191.17 ± 9.6
[3], 350 K	–	193.24 ± 9.6
[3], 355 K	–	195.17 ± 9.8
[3], 360 K	–	197.24 ± 9.9
[3], 365 K	–	199.16 ± 9.9
[3], 370 K	–	201.24 ± 10
[3], 375 K	–	203.16 ± 10
[3], 380 K	–	205.09 ± 10
[3], 385 K	–	207.16 ± 10

Conditions	Molar enthalpy of transition or fusion
[2]	0.623 kcal/mol and 0.676 kcal/mol
